This is an account of results in ChEMBL document CHEMBL3286376, “Design, synthesis and biological evaluation of hydroxy- or methoxy-substituted 5-benzylidene(thio) barbiturates as novel tyrosinase inhibitors” (Bioorg Med Chem, 2014).

SMILES strings stand for the structures. Active and inactive are the calls of the source. The rule behind the calls is not given here.

The first experiment concerns the target T1, Tyrosinase (Agaricus bisporus) (UniProt O42713).
T1 sequence (whole entry): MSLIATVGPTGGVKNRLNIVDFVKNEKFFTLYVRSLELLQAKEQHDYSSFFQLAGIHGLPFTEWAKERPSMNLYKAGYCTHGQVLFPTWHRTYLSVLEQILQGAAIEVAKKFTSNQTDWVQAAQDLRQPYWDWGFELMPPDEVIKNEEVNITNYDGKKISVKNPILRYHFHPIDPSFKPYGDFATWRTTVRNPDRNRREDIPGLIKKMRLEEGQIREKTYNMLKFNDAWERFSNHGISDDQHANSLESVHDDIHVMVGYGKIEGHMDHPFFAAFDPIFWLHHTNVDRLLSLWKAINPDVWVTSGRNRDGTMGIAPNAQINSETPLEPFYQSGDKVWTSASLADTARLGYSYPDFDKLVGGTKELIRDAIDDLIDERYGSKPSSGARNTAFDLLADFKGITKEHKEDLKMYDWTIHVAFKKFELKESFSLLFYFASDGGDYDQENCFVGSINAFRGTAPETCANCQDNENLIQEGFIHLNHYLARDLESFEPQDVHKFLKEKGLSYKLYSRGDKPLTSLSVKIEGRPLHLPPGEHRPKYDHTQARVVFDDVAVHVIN
Kind of experiment: Irreversible inhibition of mushroom tyrosinase diphenolase activity assessed as oxidation of L-DOPA at 5 to 10 uM.
In the case of `O=C1NC(=S)NC(=O)C1=Cc1ccc(O)c(O)c1`, the inhibition (usually the share of the control response that was lost under treatment) was “Active”.

In the next experiment the target is T2, Tyrosinase (Agaricus bisporus, UniProt O42713).
T2 sequence (O42713 whole entry): T1 sequence (whole entry)
Description: Inhibition of mushroom tyrosinase diphenolase activity using L-DOPA as substrate assessed as formation of DOPAchrome preincubated for 10 mins followed by substrate addition measured for 1 min
Take `O=C1NC(=O)C(=Cc2ccc(O)c(O)c2)C(=O)N1`: the IC50 (usually the point on the concentration scale where inhibition reaches its midpoint) was found to be 1.52 µM.

`COc1ccc(C=C2C(=O)NC(=S)NC2=O)cc1` registered an IC50 of 70.1 µM.

For the molecule `COc1cc(C=C2C(=O)NC(=S)NC2=O)ccc1O`, the IC50 was 7.8 µM.

Turning to `O=C1NC(=O)C(=Cc2cc(O)c(O)c(O)c2)C(=O)N1`, the IC50 turned out to be 5.51 µM.

With `O=C1NC(=O)C(=Cc2ccc(O)cc2O)C(=O)N1`, inhibition was half-maximal at 17.2 µM (IC50).

`O=C1NC(=S)NC(=O)C1=Cc1cc(O)c(O)c(O)c1`: half-maximal inhibition (IC50) was put at 7.14 µM. Against the preceding molecule, the IC50 is about 2.4-fold lower.

`O=C1NC(=S)NC(=O)C1=Cc1ccc(O)c(O)c1` displayed an IC50 of 6.1 µM.

As to `O=C1NC(=S)NC(=O)C1=Cc1ccc(O)c(O)c1O`, the midpoint of inhibition, the IC50, lay at 95.8 µM.

As for `COc1ccc(C=C2C(=O)NC(=O)NC2=O)cc1`, the IC50 was 100 µM.

Take `COc1cc(C=C2C(=O)NC(=O)NC2=O)ccc1O`: the concentration for half-maximal inhibition (IC50) turned out to be 5.5 µM.

In another experiment the target is T1, Tyrosinase (Agaricus bisporus). In words: Irreversible inhibition of mushroom tyrosinase diphenolase activity assessed as oxidation of L-DOPA at 1 to 2 uM.
For the molecule `O=C1NC(=O)C(=Cc2ccc(O)c(O)c2)C(=O)N1`, the inhibition result is “Active”.

The target is the same in a further experiment. In words: Inhibition of mushroom tyrosinase diphenolase activity using L-DOPA as substrate assessed as formation of DOPAchrome at 100 uM preincubated for 10 mins followed by substrate addition measured for 1 min relative to control.
`O=Cc1ccc(O)c(O)c1`: the inhibition is < 20%.

For `O=C1NC(=O)C(=Cc2ccccc2O)C(=O)N1`, the inhibition was < 20%.

Consider `COc1cc(C=C2C(=O)NC(=S)NC2=O)cc(OC)c1OC`, for which the inhibition is < 20%.

In the case of `O=C1NC(=S)NC(=O)C1=Cc1ccc(O)cc1O`, the inhibition is < 20%.

Consider `O=C1NC(=S)NC(=O)C1=Cc1cccc(O)c1`, for which the inhibition is < 20%.

Turning to `O=C1NC(=S)NC(=O)C1=Cc1c(O)cc(O)cc1O`, the inhibition was < 20%.

In the case of `O=C1NC(=O)C(=Cc2cccc(O)c2)C(=O)N1`, the inhibition is < 20%.

As for `COc1ccc(C=C2C(=O)NC(=O)NC2=O)cc1O`, the inhibition was < 20%.

On to `O=C1NC(=O)C(=Cc2c(O)cc(O)cc2O)C(=O)N1`, for which the inhibition is < 20%.

As to `O=C1NC(=O)C(=Cc2ccc(O)c(O)c2O)C(=O)N1`, the inhibition was < 20%.

With `COc1ccc(C=C2C(=O)NC(=S)NC2=O)cc1O`, the inhibition was < 20%.

Regarding `O=C1NC(=S)NC(=O)C1=Cc1ccccc1O`, the inhibition was < 20%.

For `O=C1CC(=O)NC(=S)N1`, the inhibition was < 20%.

In the case of `O=C1CC(=O)NC(=O)N1`, the inhibition is < 20%.

Turning to `COc1cc(C=C2C(=O)NC(=O)NC2=O)cc(OC)c1OC`, the inhibition is < 20%.
